# Columns and labels:
# E. coli K-12 bacteria = assay: Effect of antibiotic on bacterial growth, monitored by nonlinear rotation of magnetic particles; format: cell-based; details: 5% w/v Ampicillin antibiotic solution; cluster of 40 μm magnetic particles attached to small colony; Luria Broth (Miller) Growth Media; FIG. 9 bottom curve
# Excerpt: The top curve is for several particles attached to a small colony of E. coli K-12 bacteria in Luria Broth (Miller) Growth Media. The rotational period increases over time, indicating bacterial grow. […] In certain configurations, especially when particles are at an interface, such as an air-liquid interface, the nonlinear rotation may occur in a plane perpendicular to the plane of the external driving magnetic field. This type of nonlinear rotation occurred in the above exemplary measurement.
# E. coli = assay: Growth of bacteria attached to a magnetic microsphere, monitored by nonlinear rotation period; format: cell-based; details: bacteria exposed to isopropyl alcohol (70%) for 15 minutes; control, FIG. 4d circles; growth media alone gave 75% increase over 25 min
# Excerpt: Rotation rates were observed under fluorescent, reflection, and bright-field microscopy. FIG. 4(a) was obtained by measuring the average rotation rate of a magnetic microsphere (with an attached E. coli) for increasing magnetic driving frequencies. The critical frequency, where the magnetic particle goes from synchronous with driving field to asynchronous (nonlinear), occurs abruptly at 1.27 Hz. Measurements for (b), (c), and (d) were then made in this nonlinear regime. Bacteria attached to magnetic microspheres were optically detected by fluorescence of DsRed fluorescent protein transformed bacteria.
# The magnetic microspheres with one bacterium attached rotated 33.8 times slower than the blank microspheres. […] There was an incremental 75% increase in rotation period over 25 min.
smiles,measurement,setting,value
CC1(C)S[C@@H]2[C@H](NC(=O)[C@H](N)c3ccccc3)C(=O)N2[C@H]1C(=O)O [Ampicillin],normalized rotational period over time (indicator of bacterial growth),E. coli K-12 bacteria,decreases or stays constant over time
CC(C)O [isopropyl alcohol],change in normalized rotation period (growth of attached bacteria),E. coli,an increase just within the limits of the error bars

# From patent publication US9068977B2, “Non-linear rotation rates of remotely driven particles and uses thereof” (THE REGENTS OF THE UNIVERSITY OF MICHIGAN, priority 2007, dated 2015)
